Measurements: patent US20180256496A1, “CONTROLLED-RELEASE FORMULATIONS” (Camurus AB, priority 2015, published 2018)

Design: species or system dog (beagle)
Conditions: dog, in vivo, sc
Description: The in vivo release profiles of granisetron and buprenorphine after subcutaneous injection of Formulations 7A and 7B (Example 7) in dog (beagle) was evaluated using the doses set out in Table 13. The animals were dosed on Days 1 and 8 with the respective formulation.
A validated bioanalytical method was used for the determination of GRN in dog plasma. The analytical method employed liquid chromatography with tandem mass spectrometric detection. The lower limit of quantification of the analytical method was 0.05 ng/mL. The calibration curve ranged from 0.05 to 50.0 ng/mL. Samples above the upper limit of quantitation were diluted into range using control beagle K2-EDTA plasma.

For `CN1[C@@H]2CCC[C@H]1C[C@@H](NC(=O)c1nn(C)c3ccccc13)C2` [granisetron], the “dose linearity with respect to exposure (AUC)” value was “dose linearity was indicated”.
